From patent US20180221435A1, “ITCH TREATMENT USING A COMBINATION OF NEUROKININ-1, GASTRIN RELEASING PEPTIDE, AND GLUTAMATE RECEPTOR ANTAGONISTS” (The Regents of the University of California, priority 2013, published 2018)
Read-outs that look alike come from different tables or passages of the source.

Assays:
[1] = at the dose and in the condition of the same Table I line; cited from earlier work
DRG cells = assay: Calcium imaging of DRG cells; details: 898 DRG cells; chloroquine 300 μM, histamine 100 μM, 30 sec; ratio increase more than 10%
[2] = system: superficial dorsal horn neurons; assay: In vivo single-unit recording, topical AITC-evoked firing, spinal superfusion of antagonists; set-up: species or system mice
Description: (§1) Akiyama T et al., The Journal of neuroscience: the official journal of the Society for Neuroscience 29(20):6691-6699 (2009)]. Anesthesia was induced by sodium pentobarbital (60 mg/kg ip) and maintained by supplemental injections (10-20 mg/kg/hr). […] A tungsten microelectrode recorded single-unit activity in the lumbar spinal cord. A chemical search strategy [Akiyama T et al., Journal of neurophysiology 102(4):2176-2183 2009; […] Following mechanical stimulation, histamine (50 μg) was injected id within the same receptive field at a different location via a separate injection cannula. Following the id histamine injection, we tested the effects of antagonists for the receptors of NK1, GRP, or AMPA/kainate in the same manner as described above for chloroquine. […] Following the AITC application, we tested the effects of the NK-1 receptor antagonist, the AMPA/kainate receptor antagonist, or a combination of both antagonists in the same manner as described above for chloroquine. Action potentials were recorded to a computer and counted using Chart software (AD Instruments, Colorado Springs Colo.) and Spike2 software (CED Instruments). […] Mean peak responses elicited by noxious pinch were compared by one way repeated-measures ANOVA followed by post-hoc Bonferroni test, with p<0.05 set as significant. At the end of each experiment, an electrolytic lesion was made at the spinal cord recording site.

[3] = system: superficial dorsal horn neurons; assay: In vivo single-unit recording, noxious pinch-evoked responses, spinal superfusion of antagonists; set-up: species or system mice; details: pinch at end of 1 min superfusion
Description: Akiyama T et al., The Journal of neuroscience: the official journal of the Society for Neuroscience 29(20):6691-6699 (2009)]. Anesthesia was induced by sodium pentobarbital (60 mg/kg ip) and maintained by supplemental injections (10-20 mg/kg/hr). […] A tungsten microelectrode recorded single-unit activity in the lumbar spinal cord. A chemical search strategy [Akiyama T et al., Journal of neurophysiology 102(4):2176-2183 2009; […] Units were classified as wide dynamic range (WDR)-type if they responded in a graded manner to innocuous mechanical stimulation (brushing, cotton wisp) and noxious pinch, or nociceptive-specific (NS) if they responded to noxious pinch (and to the 55 mN von Frey stimulus) but not to the cotton wisp or brush stimuli. […] Akiyama T et al., The Journal of neuroscience: the official journal of the Society for Neuroscience 29(20):6691-6699 (2009)]. […] At the end of the antagonist superfusion, the noxious pinch stimulus was delivered again at the same site on the receptive field. Thirty minutes later, the noxious pinch stimulus was delivered in the same manner. Action potentials were recorded to a computer and counted using Chart software (AD Instruments, Colorado Springs Colo.) and Spike2 software (CED Instruments). […]

[4] = system: superficial dorsal horn neurons; assay: In vivo single-unit recording, id chloroquine-evoked firing, spinal superfusion of antagonists; set-up: species or system mice
Description: (§2) The single-unit recording from the lumbar spinal cord was conducted as previously detailed [Akiyama T et al., Journal of neurophysiology 102(4):2176-2183 (2009); Akiyama T et al., The Journal of neuroscience: the official journal of the Society for Neuroscience 29(20):6691-6699 (2009)]. Anesthesia was induced by sodium pentobarbital (60 mg/kg ip) and maintained by supplemental injections (10-20 mg/kg/hr). A gravity-driven perfusion system allowed artificial cerebrospinal fluid (Krebs: 117 mM NaCl, 3.6 mM KCl, 2.5 mM CaCl2, 1.2 mM MgCl2, 1.2 mM NaH2PO4, 25 mM NaHCO3 and 11 mM glucose which was equilibrated with 95% 02 and 5% CO2 at 37° C.) to be superfused continually over the exposed lumbosacral spinal cord [Akiyama T et al., PloS one 6(7):e22665 (2011)]. A tungsten microelectrode recorded single-unit activity in the lumbar spinal cord. A chemical search strategy [Akiyama T et al., Journal of neurophysiology 102(4):2176-2183 2009; Akiyama T et al., The Journal of neuroscience: the official journal of the Society for Neuroscience 29(20):6691-6699 (2009)] was used to identify and isolate chloroquine-responsive units. Our search strategy was intended to maximize the chance of isolating a chloroquine-responsive neuron; it was assumed that such neurons either gave rise to ascending projections, or served as interneurons in segmental scratch-reflex circuitry, and no attempt was presently made to distinguish between these possibilities.
Briefly, a small (˜0.25 μl) intradermal (id) microinjection of chloroquine (100 μg/μl) was made in the ventral hindpaw and a spontaneously active unit in the superficial lumbar dorsal horn (depth<300 um) was isolated. After the spontaneous activity had waned, chloroquine (1 μl, 100 μg/μl) was injected again at the same site through the same needle. […] Responses were usually recorded for at least 30 minutes, although in many cases unit firing declined over a shorter period.
Action potentials were recorded to a computer and counted using Chart software (AD Instruments, Colorado Springs Colo.) and Spike2 software (CED Instruments). Ongoing responses elicited by chloroquine, histamine, or AITC were averaged at 20-second intervals before, during and after the antagonist application, and compared by one way repeated-measures analysis of variance (ANOVA) followed by post-hoc Bonferroni test, with p<0.05 set as significant. The mean firing rate was calculated over a 20-second period 40 seconds after the antagonist application, and compared by one way ANOVA followed by post-hoc Bonferroni test, with p<0.05 set as significant. The criterion for decrease in ongoing firing was >70% decrease below the ongoing activity elicited by pruritogen over a 20-second period 40 seconds after the antagonist application. Mean peak responses elicited by noxious pinch were compared by one way repeated-measures ANOVA followed by post-hoc Bonferroni test, with p<0.05 set as significant. At the end of each experiment, an electrolytic lesion was made at the spinal cord recording site. The spinal cord was postfixed in 10% buffered formalin, cut in 50 μm frozen sections, and examined under the light microscope to identify lesions.

[5] = system: histamine-evoked scratching; details: intrathecal L-733060 22.7 nmol or RC-3095 0.3 nmol, data adapted from Akiyama et al. 2013, cited from earlier work
[6] = system: superficial dorsal horn neurons; assay: Baseline activity of superficial dorsal horn neurons before and after antagonist application; type: in vivo, mice; details: ± SEM
Description: as §2
There was no significant effect of any of the antagonists on the baseline activity of superficial dorsal horn neurons that were subsequently show to respond to pruritogens. […] Values prior to, and after administration of each antagonist individually or in combination, are as follows. NK-1 antagonist L-733060: pre-application 0.88 Hz±0.23 (SEM), post-antagonist 0.72 Hz±0.19 (n=10). GRPR antagonist RC-3095: pre-application 0.54 Hz±0.54, post-antagonist: 0.53 Hz±0.53 (n=4). CNQX: pre-application 0.53 Hz±0.14, post-antagonist 0.64 Hz±0.21 (n=22). CNQX+L-733060: pre-application 0.52 Hz±0.17, post-antagonists 0.43 Hz±0.11 (n=26). CNQX+L-733060+RC-3095: pre-application 0.14 Hz±0.06, post-antagonists 0.17 Hz±0.06 (n=9).

[7] = system: superficial dorsal horn neurons; assay: In vivo single-unit recording, id histamine-evoked firing, spinal superfusion of antagonists; set-up: species or system mice; details: for Percentages of dorsal horn units that exhibited a decrease of 70% or more in firing rate following spinal superfusion of antagonists: id histamine-evoked firing, superfusion 1 min, RC-3095 20 μM, L-733060 200 μM, CNQX 100 μM
Description: as §1

In the case of `COc1ccc(OC(F)(F)F)cc1CN[C@H]1CCCN[C@H]1c1ccccc1` [AV608], the “Side Effects” value [1] is listed as “well tolerated”.

For `O=c1[nH]c2cc(C(F)(F)F)c(N3CCOCC3)cc2n(CP(=O)(O)O)c1=O` [ZK 200775], the “Side Effects” value [1] is listed as “Sedation,”.

In the case of `NCCc1c[nH]cn1` [histamine], the “percentage of DRG cells imaged that responded” value (DRG cells) is reported as 12.9%.

With `FC(F)(F)c1cc(CO[C@H]2CCCN[C@H]2c2ccccc2)cc(C(F)(F)F)c1` [L733060] the “AITC-evoked firing, effect of spinal superfusion” value ([2]; topical AITC 75%) was “numerically reduced”, the “Percentages of dorsal horn units that exhibited a decrease of 70% or more in firing rate following spinal superfusion of antagonists” value ([2]; topical AITC-evoked firing, superfusion 1 min, L-733060 200 μM, CNQX 100 μM) was 22% (2/9) and the “noxious pinch-evoked response, effect of spinal superfusion” value [3] was “not reduced”. The “chloroquine-evoked firing compared to vehicle superfusion” value ([4]; 40-60 s of superfusion, normalized firing, vs vehicle) was “did not produce a significant reduction in firing compared to vehicle superfusion”, the “chloroquine-evoked firing in NS cells” value ([4]; NS units, vs vehicle) was “but not NS cells” and the “chloroquine-evoked firing in WDR cells” value ([4]; WDR units, vs vehicle) was “significantly reduced”. For the same compound, the “chloroquine-evoked firing, effect of spinal superfusion” value ([4]; relative to chloroquine-evoked response prior to spinal superfusion) was “significantly attenuated after the cessation of superfusion”, the “histamine-evoked scratching (scratch bouts/30 minutes)” value ([5]; listed as NK-1 antagonist) was “neither the NK-1 nor the GRPR antagonist attenuated” and the “histamine-evoked scratching (scratch bouts/30 minutes)” value ([5]; listed as NK-1 receptor antagonist) was “not affected”. The “baseline neuronal firing rate, post-antagonist” value ([6]; averaged over 1 min following antagonist application) was 0.72 Hz, the “baseline neuronal firing rate, pre-application” value ([6]; averaged over 1 min prior to antagonist application) was 0.88 Hz and the “histamine-evoked response of NS units” value ([7]; NS units, vs vehicle) was “failed to reduce”. For the same compound, the “histamine-evoked response of WDR units” value ([7]; WDR units, vs vehicle) was “failed to reduce”, the “histamine-evoked firing, effect of spinal superfusion” value ([7]; all units) was “not significantly different from vehicle” and the “Percentages of dorsal horn units that exhibited a decrease of 70% or more in firing rate following spinal superfusion of antagonists” value [7] was 33% (6/18). For the same compound, the “Percentages of dorsal horn units that exhibited a decrease of 70% or more in firing rate following spinal superfusion of antagonists” value ([7]; listed as NK-1 antagonist) was 33%.

In the case of `CC(=O)N1N=C(c2ccc(N)cc2)c2cc3c(cc2C[C@H]1C)OCO3` [Talampanel], the “Side Effects” value [1] is listed as “Mild (fatigue,”.

For `COc1ccc(-n2nnnc2C(F)(F)F)cc1CN[C@H]1CCCN[C@H]1c1ccccc1` [GR205171], the “Side Effects” value [1] is listed as “well-tolerated”.

In the case of `CC(=O)N1CCN([C@H]2CCN(C(=O)N(C)[C@H](C)c3cc(C(F)(F)F)cc(C(F)(F)F)c3)[C@@H](c3ccc(F)cc3C)C2)CC1` [GW679769], the “Side Effects” value [1] is given as “well tolerated,”.

For `CCN(CC)CCCC(C)Nc1ccnc2cc(Cl)ccc12` (stereo not drawn) [chloroquine], the “percentage of DRG cells imaged that responded” value (DRG cells) was 8.4%.

In the case of `C[C@@H](O[C@H]1OCCN(Cc2n[nH]c(=O)[nH]2)[C@H]1c1ccc(F)cc1)c1cc(C(F)(F)F)cc(C(F)(F)F)c1` [Aprepitant], the “Side Effects” value [1] is given as “generally mild”.
